“Also recorded” adds a separate entry of the source.
How the values were obtained:
[1] = test system: human HCT-116 colorectal carcinoma; experiment: Cell growth inhibition by MTS assay (cytotoxicity); format: cell-based; settings: for IC50: Homo sapiens, HCT-116, MTS assay, 72 h of incubation, triplicate, read-out: IC50 mM HCT116
Description: (§1) Human MRC-5 cell line derived from normal lung tissue and human HCT-116 colorectal carcinoma were obtained from the American Type Culture Collection (ATCC, Rockville, Md.). Cell lines were cultured according to the supplier's instructions. Human HCT-116 cells were grown in Gibco McCoy's 5A supplemented with 10% fetal calf serum (FCS) and 1% glutamine. Human MRC-5 cells were grown in DMEM supplemented with 10% fetal calf serum (FCS) and 1% glutamine.
(§2) Cells were counted using a Vi-cell XR (Beckman Coulter) and their viability assessed by 0.25% trypan blue dye exclusion. They were tested for the presence of mycoplasma before experiments with the Mycoplasma PCR Detection Kit (Applied Biological Materials Inc., Canada) in accordance with the manufacturer instructions and only mycoplasma-free cells were used for further investigations.
(§3) Cell lines were maintained at 37° C. in a humidified atmosphere containing 5% CO2. Cell growth inhibition was determined by an MTS assay according to the manufacturer's instructions (Promega, Madison, Wis., USA). […] After 24 h of culture, the cells were treated with the compound CR777B of example 1 or with the withaferine at 8 different final concentrations. Each concentration was obtained from serial dilutions in culture medium starting from the stock solution. Control cells were treated with the vehicle. Experiments were performed in triplicate.
(§4) After 72 h of incubation, 20 μL of CellTiter 96® AQueous One Solution Reagent was added for 2 h before recording absorbance at 490 nm with a spectrophotometric plate reader. The dose-response curves were plotted with Graph Prism software and the IC50 values were calculated using the Graph Prism software from polynomial curves (four or five-parameter logistic equations).

[2] = test system: Human MRC-5 cell line derived from normal lung tissue; experiment: Cell growth inhibition by MTS assay (cytotoxicity); format: cell-based; settings: MRC5, 72 h of incubation, triplicate
Description: as §1, §2, §3, §4

[3] = test system: primary rat dopaminergic neurons (TH positive neurons); experiment: Neuroprotection after MPP+ exposure, TH immunostaining; format: cell-based; settings: for neuroprotective effect on TH positive neurons: 1 pmol/L to 10 μmol/L
Description: This study investigated the neuroprotective effect of the Compound CR777B of example 1 on rat primary mesencephalic cultures following exposure to 1-methyl-4-phenyl pyridinium (MPP^+).
Rat dopaminergic neurons were cultured as described by Visanji et al., 2008 FASEB J. 2008; 22(7):2488-97. Briefly, the midbrains obtained from 15-day old rat embryos (Janvier Labs, France) were dissected under a microscope. The embryonic midbrains were removed and placed in ice-cold medium of Leibovitz (L15, Batch 4290114, Pan Biotech, Germany) containing 2% of Penicillin-Streptomycin (PS, Batch 1451013, Pan Biotech) and 1% of bovine serum albumin (BSA, Batch K030913, Pan Biotech). The ventral portion of the mesencephalic flexure, a region of the developing brain rich in dopaminergic neurons, was used for the cell preparations.
The midbrains were dissociated by trypsinisation for 20 min at 37° C. […] The cells were seeded in supplemented neurobasal medium at a density of 40 000 cells/well in 96 well-plates pre-coated with poly-L-lysine (Batch 3102256, Corning Biocoat) and maintained in a humidified incubator at 37° C. in 5% CO2/95% air atmosphere. Half of the medium was changed every 2 days with fresh medium.
On day 6 of culture, the medium was removed and fresh medium was added, without or with MPP+ at 4 μM diluted in control medium and let for 48 h. In parallel, compound CR777B and withaferin A were solved in culture medium and then pre-incubated with mesencephalic neurons 1 hour before the MPP+ application (48 h).
48 hours after intoxication, the cell culture supernatant was taken off and the dopaminergic neurons were fixed by a solution of 4% paraformaldehyde in PBS, pH=7.3 for 20 min at room temperature.
After permeabilization with 0.1% of saponin (Merck, France), cells were incubated for 2 hours with monoclonal Anti-Tyrosine Hydroxylase (TH) antibody produced in mouse at dilution of 1/10000 in PBS containing 1% FCS, 0.1% saponin, for 2 h at room temperature.
The immunolabeled cultures were automatically examined with ImageXpress (Molecular Devices, United Kingdom) equipped with a LED at ×10 magnification. […] All images were taken with the same conditions. Analysis were automatically performed by using Custom Module Editor (Molecular Devices).
Data were expressed in percentage of control conditions (no injury, no compound=100%). All values were expressed as mean+/−SEM (standard error mean) of the 6 wells with statistical analyses on the different conditions (ANOVA followed by Dunnett's test when allowed, using GraphPad Prism software).

[4] = test system: primary cocultures of central neurons and oligodendrocytes; experiment: In vitro myelination (MS) model, A2B5 and MAG immunostaining; format: cell-based, rat; settings: for conclusion: effect on OPC and OL: 1 pmol/L to 10 μmol/L
Description: A reproducible in vitro myelination model based on primary cocultures of central neurons and oligodendrocytes culturing in 96-well plate is used and adapted to high throughput screening.
Neurons/oligodendrocytes were cultured as previously described by Charles et al., 2000. PNAS 97 7585-7590.
Briefly, pregnant Wistar female rats of 17 days gestation were killed by cervical dislocation (Janvier Labs, France) and the foetuses removed from the uterus. The forebrains were removed and placed in ice-cold medium of Leibovitz (L15; Pan Biotech, Germany) containing 2% of Penicillin-Streptomycin (Batch 1451013, PanBiotech) and 1% of bovine serum albumin (BSA) (Batch K180713, Pan Biotech). Cortexes were dissociated by trypsinisation for 20 min at 37° C., with Trypsin EDTA 1× (Batch 7310713, PanBiotech). The reaction was stopped by the addition of Dulbecco's modified Eagle's medium (DMEM) (Batch 9710913, PanBiotech) containing DNAase I grade II at 0.1 mg/mL (Batch H131108, PanBiotech) and 10% of foetal calf serum (Batch 41Q7218K, Invitrogen, France). Cells were then mechanically dissociated by 3 passages through a 10 mL pipette. Cells were centrifuged at 180×g for 10 min at 4° C. temperature on a layer of BSA (3.5%) in L15 medium. The supernatant was discarded and cells of the pellet were re-suspended in DMEM containing 10% of FCS. […] The supernatant was discarded and cells of pellet were re-suspended in a culture medium consisting of Neurobasal (Batch 1625353, Invitrogen) supplemented with 2% of B27 (Batch 1618508, Invitrogen), 2 mM of L-glutamine (Batch 6620314, PanBiotech), 2% of PS solution, 1% of foetal calf serum (FCS) and 10 ng/mL of platelet-derived growth factor (PDGF-AA) (Batch H131205, PanBiotech).
The plates were maintained at 37° C. in a humidified incubator, in an atmosphere of air (95%)-CO2 (5%). Half of the medium was changed every 2 days with fresh medium in presence or absence of compound.
The cells were then permeabilized and non-specific sites were blocked with a solution of phosphate buffered saline (Batch 3010914, PanBiotech) containing 0.1% of saponin (Batch BCBJ8417V, Sigma) and 1% FCS for 15 min at room temperature.
On day 12, cells were incubated with Monoclonal Anti-A2B5 conjugated Alexa Fluor® 488 produced in mouse (Batch 2281669, Millipore, France) at dilution of 1/200 in PBS containing 1% FCS, 0.1% saponin, and with anti-MAP-2 antibody produced in chicken (Batch GR180541-3, AbCam; United Kingdom) at dilution of 1/1000 in PBS containing 1% FCS, 0.1% saponin for 2 h at room temperature.
On day 18, cells were incubated with Monoclonal Anti-MAG antibody produced in mouse (Batch 2301638, Millipore) at dilution of 1/400 in PBS containing 1% FCS, 0.1% saponin, and with anti-MAP-2 antibody produced in chicken at dilution of 1/1000 in PBS containing 1% FCS, 0.1% saponin for 2 h at room temperature.
The immunolabeled cultures were automatically examined with ImageXpress (Molecular Devices) equipped with a LED at ×20 magnification. For each condition, 30 pictures (representing ˜80% of the total surface of the well) per well were taken. All images were taken with the same conditions. Number of A2B5 positive cells and number of MAG positive cells were automatically analyzed by using Custom module editor (Molecular Devices). Data were expressed in percentage of control conditions (no plant extract=100%). All values were expressed as mean+/−SEM (s.e.mean) of the 6 wells. Graphs and statistical analyses are made on the different conditions (ANOVA followed by Dunnett's test when allowed, using GraphPad Prism software).

[5] = test system: primary motor neuron culture from rat spinal cord; experiment: Motor neuron survival after glutamate exposure (in vitro ALS model), MAP-2 immunostaining; format: cell-based; settings: for protective effect on motor neurons: 1 pM to 10 μM
Description: The aim of this study was to study the effect of CR777B on primary motor neuron culture from rat spinal cord (SC) injured by glutamate exposure (a well validated in vitro ALS model and model of motor neuron diseases).
Rat SC motor neurons were cultured as described by Martinou et al., Neuron. […] Briefly, pregnant female rats (Wistar, Janvier labs) of 14 days gestation were killed by cervical dislocation. […] The medium was changed every day.
For each condition, 6 wells were assessed, 30 pictures per well were taken using ImageXpress (Molecular Devices) with 20× magnification, to assess motor neuron survival (MAP-2). Analysis of picture was done using Custom Module Editor (Molecular Devices). Results were expressed in terms of mean survival neuron, labeled for MAP-2. Data were expressed in percentage of control conditions (no intoxication, no glutamate=100%) in order to express the glutamate injury. All values were expressed as mean+/−SEM (s.e.mean) of the culture (n=6 wells per condition per culture). Graphs and statistical analyses are made on the different conditions (ANOVA followed by PLSD Fisher's test when allowed, using Statview software version 5.0).

[6] = test system: primary rat cortical neurons; experiment: Neuron survival and neurite network after glutamate injury, MAP-2 immunostaining
[7] = added 1 h before MPP+ (4 μM) and let for 48 h
[8] = added 1 h before glutamate (5 μM, 20 min)
[9] = added 1 h before glutamate (40 μM, 20 min) and let for 48 h
[10] = after 12 or 18 days of incubation

CC1=C(CO)C(=O)O[C@@H]([C@@H](C)[C@H]2CCC3C4C[C@H]5O[C@]56[C@@H](O)C(SC[C@H](NC(=O)CC[C@@H](N)C(=O)O)C(=O)NCC(=O)O)CC(=O)[C@]6(C)C4CC[C@@]32C)C1 (some centres unmarked) [CR777B]
IC50 [1]: 0.00266 mM | toxicity on the cells compared with withaferin ([1]; whatever the cell line tested (HCT116 and MRC5)): less toxic than the compound withaferin | IC50 [2]: 0.0036 mM | concentrations with toxic effect on TH positive neurons [3, 7]: 10 µM | neuroprotective effect on TH positive neurons [3, 7]: significant protective effect (neuron survival and preservation of neurite network) at all doses (except at the highest dose) | conclusion: effect on OPC and OL [4]: significantly increase the number of OPC and OL | OPC number (A2B5 positive cells) ([4]; after 12 days of incubation): significant increase of OPC | concentration of maximal effect on OPC number (bell shape curve) ([4]; after 12 days of incubation): 100 pM | total number of OPCs at the highest doses ([4]; after 12 days of incubation, highest doses): decrease of the total number of OPCs | myelination of neurons by OL (MAG expression) ([4]; after 18 days of treatment): significantly improved the myelination of neurons by OL | number of MAG positive cells (OL) ([4]; after 18 days of treatment): increase the number of MAG positive cells | MN protective effect at the 2 highest doses ([5]; 2 highest doses (1 and 10 μM), glutamate 5 μM, 20 min): inactive | concentration of maximal MN protective effect (bell shape curve) ([5]; added 1 h before glutamate (5 μM, 20 min), then 48 h): 100 nM | protective effect on motor neurons [5, 8]: significant protective effect at all doses (except at the 2 highest doses) | concentration with toxicity on neurite network [6, 9]: 10 µM

N[C@@H](CCC(=O)O)C(=O)O [Glutamate, glutamate]
motor neuron death ([5]; glutamate 5 μM for 20 min): > 30% | neuronal death and neurite network loss ([6]; glutamate 40 μM, 20 min): significant neuronal death and neurite network loss

C[n+]1ccc(-c2ccccc2)cc1 [MPP+, 1-methyl-4-phenyl pyridinium]
TH positive neuron cell death ([3]; MPP+ 4 μM, 48 h): > 35%

CC1=C(CO)C(=O)O[C@@H]([C@@H](C)[C@H]2CC[C@H]3[C@@H]4C[C@H]5O[C@]56[C@@H](O)C=CC(=O)[C@]6(C)[C@H]4CC[C@]23C)C1 [Withaferin A, (4β,5β,6β,22R)-4,27-Dihydroxy-5,6:22,26-diepoxyergosta-2,24-diene-1,26-dione]
IC50 [1]: 0.00037 mM | IC50 [2]: 0.00025 mM | toxicity for TH positive neurons ([3]; MPP+ 4 μM, 48 h, highest doses): toxic for TH positive neurons at the highest doses | neuroprotective effect on TH positive neurons [3, 7]: did not show any neuroprotective effect | neuroprotective effect on TH positive neurons ([3]; added 1 h before MPP+ (4 μM) and let for 48 h, listed as withaferin A): did not show any effect | conclusion: effect on OPC and OL [4]: toxic for OPC and OL at all doses | number of OL [4, 10]: significant decrease of the number of OL | toxicity / OPC proliferation [4, 10]: large toxic and/or inhibition of the OPC proliferation | toxicity for MN ([5]; MN injured by glutamate (5 μM, 20 min)): toxic for MN injured by glutamate | protective effect on motor neurons [5, 8]: did not show a protective effect; also recorded: did not show any neuroprotective effect | protection of neurons from death [6, 9]: did not protect neurons from death
